What was measured:
[1] = test system: 3T3 L1 fibroblasts; assay: Adipocyte differentiation assay, Oil Red O staining; assay type: cell-based; settings: 1 μM GW347845, 7 days, 10 μg/ml insulin
Protocol: The adipocyte differentiation assay was performed as described by Mukherjee et. al. (Mol Endocrinol 14: 1425-33, 2000). The 3T3 L1 cells (American Type Culture Collection) were cultured in DMEM media supplemented with 10% calf serum. Two days after reaching confluence, cells were treated with AJA, GW347845, or vehicle (0.1% DMSO) in the presence of 10 μg/ml insulin every other day. After 10 days of treatment with AJA or 7 days with GW347845 at confluence, cells were fixed and stained with Oil Red O (Sigma). For RT-PCR, total cellular RNAs were isolated by TRIzol (Gibco). Reverse transcriptase polymerase chain reaction (RT-PCR) was performed using the superscript first-strand synthesis kit (Invitrogen). After first-strand cDNA was synthesized by use of oligo (dT), cDNA was amplified by PCR. […]
3T3 L1 fibroblasts cells were cultured in DMEM supplemented with 10% calf serum. […] The cells were treated for 10 days with AJA, or 7 days with GW347845, and lipid accumulation in cells was assessed by Oil Red O staining.

[2] = test system: PPARγ2 and aP2 gene expression in 3T3 L1 cells; assay: RT-PCR of adipocyte-specific genes; assay type: cell-based; settings: versus vehicle control
Protocol: The adipocyte differentiation assay was performed as described by Mukherjee et. al. (Mol Endocrinol 14: 1425-33, 2000). The 3T3 L1 cells (American Type Culture Collection) were cultured in DMEM media supplemented with 10% calf serum. Two days after reaching confluence, cells were treated with AJA, GW347845, or vehicle (0.1% DMSO) in the presence of 10 μg/ml insulin every other day. After 10 days of treatment with AJA or 7 days with GW347845 at confluence, cells were fixed and stained with Oil Red O (Sigma). For RT-PCR, total cellular RNAs were isolated by TRIzol (Gibco). Reverse transcriptase polymerase chain reaction (RT-PCR) was performed using the superscript first-strand synthesis kit (Invitrogen). After first-strand cDNA was synthesized by use of oligo (dT), cDNA was amplified by PCR. The forward primers and reverse primers used in the amplifications were 5′-GCTGTTATGGGTGAAACTCTGGGAG-3′(SEQ ID NO: 1), and 5′-CTTCATGAGGCCTGTTGTAGAGC-3′ (SEQ ID NO:2), for PPARγ2, 5′-GAGCAAATGGAGTTCCCAGATG-3′ (SEQ ID NO: 3), and 5′-GCAAACAATGGGAATAGTTCACAGTAG-3′ (SEQ ID NO: 4), for aP2, and 5′-GACCACAGTCCATGCCATCAC-3′(SEQ ID NO: 5), and 5′-CATACCAGGAAATGAGCTGAC-3′ (SEQ ID NO: 6), for GAPDH. PCR amplifications were performed in 50 μL volume with Taq DNA polymerase for 30 cycles.
To confirm that AJA and GW347845 induce 3T3 L1 cell differentiation into adipocytes, the expression levels of the adipocyte-specific genes PPARγ2 and aP2 were measured by RT-PCR. Total RNA was isolated after AJA or GW347845 treatment, and compared with vehicle control. Reverse transcription was conducted and the relative amounts of PPARγ2 and aP2 transcripts were measured by PCR reactions using primer sets specific to each gene. PCR products were analyzed on 1% agarose gel and stained with Ethidium Bromide. […] As a control for the induction specificity and the PCR amplification reaction, the expression levels of GADPH were measured in all samples, and found not affected by any treatment.

[3] = test system: human IL-8 promoter; assay: IL-8 promoter luciferase assay, HeLa cells with PPARγ ΔAF2 mutant; assay type: cell-based; settings: cells transfected with PPARγ ΔAF2 mutant
Protocol: For PPARγ activation assay, HEK293 cells were plated in 12-well cell culture plates and maintained in Dulbecco's modified Eagle's medium (DMEM) supplemented with 10% fetal bovine serum (FBS) at 37° C. under 5% CO2. Cells were changed to phenol red-free DMEM supplemented with 10% charcoal-stripped fetal bovine serum 3 hours before transfection by a standard calcium-phosphate precipitation method. Twelve hours after transfection, the cells were washed with phosphate-buffered saline (PBS) and fed again with fresh medium containing the indicated concentrations of compounds. After 36 hours, cells were harvested for β-galactosidase and luciferase activities as described previously (Li et al., Proc Natl Acad Sci USA 94:8479-84, 1997). The average normalized luciferase activity was determined via triplicate experiments. For IL-8 promoter assay, HeLa cells were maintained and transfected in the same way as described above. After transfection, cells were recovered for 4 hours before treatment with AJA, GW347845, or solvent. […]
The IL-8 luciferase reporter controlled by the human IL-8 promoter (-97/-69) was cotransfected with mPPARγ or mPPARγ ΔAF2 mutant into HeLa cells. […] The involvement of PPARγ in regulating IL-8 promoter activity was determined by comparing the IL-8 promoter activity in the presence of wild type PPARγ or its ΔAF2 mutant. […]

[4] = test system: human IL-8 promoter; assay: IL-8 promoter luciferase assay, HeLa cells with wild type PPARγ; assay type: cell-based; settings: GW347845 control
Protocol: For PPARγ activation assay, HEK293 cells were plated in 12-well cell culture plates and maintained in Dulbecco's modified Eagle's medium (DMEM) supplemented with 10% fetal bovine serum (FBS) at 37° C. under 5% CO2. Cells were changed to phenol red-free DMEM supplemented with 10% charcoal-stripped fetal bovine serum 3 hours before transfection by a standard calcium-phosphate precipitation method. Twelve hours after transfection, the cells were washed with phosphate-buffered saline (PBS) and fed again with fresh medium containing the indicated concentrations of compounds. After 36 hours, cells were harvested for β-galactosidase and luciferase activities as described previously (Li et al., Proc Natl Acad Sci USA 94:8479-84, 1997). The average normalized luciferase activity was determined via triplicate experiments. For IL-8 promoter assay, HeLa cells were maintained and transfected in the same way as described above. After transfection, cells were recovered for 4 hours before treatment with AJA, GW347845, or solvent. After 3-4 hours, cells were treated with or without 25 nM of phorbol myristate acetate (PMA) for 24 hours.
The IL-8 luciferase reporter controlled by the human IL-8 promoter (-97/-69) was cotransfected with mPPARγ or mPPARγ ΔAF2 mutant into HeLa cells. After transfection, cells were treated with AJA, GW347845 or solvent after PMA treatment for 24 hours. This was performed by determining the effect of AJA on IL-8 promoter activity and the role of PPARγ in this process. IL-8 is a biomarker for inflammation, and reduction of IL-8 levels correlates with a decrease in inflammation. The involvement of PPARγ in regulating IL-8 promoter activity was determined by comparing the IL-8 promoter activity in the presence of wild type PPARγ or its ΔAF2 mutant. In the experiment illustrated in FIG. 6A, PMA stimulated IL-8 promoter activity 3 fold, which was set as 100% promoter activity.

[5] = biological target: T1, PPARγ (Homo sapiens, UniProt P37231); assay: Activation of PPARγ by natural cannabinoids (no method given)
T1 sequence (P37231 1-505): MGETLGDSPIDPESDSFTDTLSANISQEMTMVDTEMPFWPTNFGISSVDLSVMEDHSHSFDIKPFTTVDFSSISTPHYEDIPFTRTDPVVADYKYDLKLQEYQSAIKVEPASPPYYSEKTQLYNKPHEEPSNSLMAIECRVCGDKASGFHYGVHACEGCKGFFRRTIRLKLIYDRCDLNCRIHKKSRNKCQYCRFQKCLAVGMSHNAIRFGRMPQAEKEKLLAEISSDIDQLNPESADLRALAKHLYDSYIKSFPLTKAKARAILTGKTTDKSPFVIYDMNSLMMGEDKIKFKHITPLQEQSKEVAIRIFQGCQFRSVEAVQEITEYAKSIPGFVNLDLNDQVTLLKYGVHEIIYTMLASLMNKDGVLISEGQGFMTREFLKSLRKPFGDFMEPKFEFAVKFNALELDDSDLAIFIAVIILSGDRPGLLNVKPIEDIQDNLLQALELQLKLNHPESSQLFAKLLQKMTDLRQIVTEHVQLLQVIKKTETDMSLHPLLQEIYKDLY

| Structure (SMILES) | lipid accumulation, Oil Red O staining [1] | PPARγ2 gene expression [2] | aP2 gene expression [2] | effect on IL-8 promoter activity [3] | reduction of IL-8 promoter activity [4] | activation of PPARγ [5] |
| --- | --- | --- | --- | --- | --- | --- |
| COC(=O)c1ccccc1N[C@@H](Cc1ccc(OCCc2nc(-c3ccccc3)oc2C)cc1)C(=O)O [GW347845, reference compound] | dramatic increase in lipid droplet staining | enhanced PPARγ2 and aP2 gene expression significantly | enhanced PPARγ2 and aP2 gene expression significantly | not with the ΔAF2 mutant | dramatically reduced IL-8 promoter activity | – |
| CCCCCc1cc(O)c2c(c1)OC(C)(C)[C@@H]1CCC(C)=C[C@@H]21 [THC, Tetrahydrocannabinol] | – | – | – | – | – | also activate PPARγ |

Reference: US20040186166A1, “Cannabinoid analogs as peroxisome proliferator activated nuclear receptor gamma activators” (priority 2002, published 2004)
